# Laboratory results: ChEMBL document CHEMBL1152157, “Total synthesis and biological evaluation of potent analogues of dictyostatin: modification of the C2-C6 dienoate region” (Bioorg Med Chem Lett, 2008)
# pIC50: −log10 of the molar value. Active and inactive are the calls of the source. The rule behind the calls is not given here.
# Assays:
# Assay type in all cases: functional, cell-based
# ASPC1 = assay: Cytotoxicity against taxol-sensitive human AsPC1 cells after 72 hrs by MTT assay; settings: ASPC1, 72 h
# PANC-1 [1] = assay: Cell cycle arrest in human PANC1 cells by accumulation in G2/M phase
# PANC-1 [2] = assay: Cytotoxicity against taxol-sensitive human PANC1 cells after 72 hrs by MTT assay; settings: PANC-1, 72 h
# NCI/ADR-RES = assay: Cytotoxicity against taxol-resistant human NCI/ADR-RES cells after 72 hrs by MTT assay
# PANC-1 [3] = assay: Induction of microtubule stabilization in human PANC1 cells assessed as formation of dense intracellular microtubule bundles
# DLD-1 = assay: Cytotoxicity against taxol-sensitive human DLD1 cells after 72 hrs by MTT assay; settings: DLD-1, 72 h
SMILES,pIC50 (ASPC1),Activity (PANC-1 [1]),pIC50 (PANC-1 [2]),pIC50 (NCI/ADR-RES),Activity (PANC-1 [3]),pIC50 (DLD-1)
C=C/C=C\[C@H](C)[C@@H]1OC(=O)CCCC[C@@H](C)[C@@H](O)C[C@H](O)/C=C\[C@H](C)[C@H](O)[C@@H](C)C[C@@H](C)CC[C@@H](O)[C@@H]1C,6.92,Active,7.19,6.89,Active,7.26
C=C/C=C\[C@H](C)[C@@H]1OC(=O)/C=C\C=C\[C@@H](C)[C@@H](O)C[C@H](O)/C=C\[C@H](C)[C@H](O)[C@@H](C)C[C@@H](C)CC[C@@H](O)[C@@H]1C [DICTYOSTATIN],8.21,–,8.38,8.18,–,8.66
CC(=O)O[C@H]1C(=O)[C@@]2(C)[C@H]([C@H](OC(=O)c3ccccc3)[C@]3(O)C[C@H](OC(=O)[C@H](O)[C@@H](NC(=O)c4ccccc4)c4ccccc4)C(C)=C1C3(C)C)[C@]1(OC(C)=O)CO[C@@H]1C[C@@H]2O [PACLITAXEL],7.05,–,8.00,5.89,–,7.66
C=C/C=C\[C@H](C)[C@@H]1OC(=O)/C=C\C=C\C[C@@H](O)C[C@H](O)/C=C\[C@H](C)[C@H](O)[C@@H](C)C[C@@H](C)CC[C@@H](O)[C@@H]1C,7.25,Active,7.77,7.37,Active,8.09
C=C/C=C\[C@H](C)[C@H](OC(N)=O)[C@@H](C)[C@H](O)[C@@H](C)C/C(C)=C\[C@H](C)[C@@H](O)[C@@H](C)/C=C\[C@@H](O)C[C@@H]1OC(=O)[C@H](C)[C@@H](O)[C@H]1C [DISERMOLIDE],–,–,–,6.80,–,–
C=C/C=C\[C@H](C)[C@@H]1OC(=O)CC/C=C/[C@@H](C)[C@@H](O)C[C@H](O)/C=C\[C@H](C)[C@H](O)[C@@H](C)C[C@@H](C)CC[C@@H](O)[C@@H]1C,7.03,Active,7.38,7.18,Active,7.66
